Several values for one entry are separate records, joined by “and”; a condition that tells them apart may be missing. Equal values may be shown once. Inconclusive results and toxic doses are left out.
Tested on: B6C3F1 mice, ip Sarcoma M5076, median survival T/C
Experiment: NCI In Vivo Anticancer Drug Screen. Data for tumor model Sarcoma M5076 (intraperitoneal) in B6C3F1 mice
Conditions: endpoint: median survival time, higher = longer survival
Summary of the method: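 The readout is a ratio of survival in drug-treated animals to survival in animals given vehicle alone, taken in mice bearing a transplanted tumour line.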

[1] = dose: 50.0 mg/kg/injection, schedule: Q04DX004 (ip), vehicle: Klucel (hydroxypropylcellulose) (HPC)
[2] = dose: 100.0 mg/kg/injection, schedule: Q04DX004 (ip), vehicle: Klucel (hydroxypropylcellulose) (HPC)
[3] = dose: 200.0 mg/kg/injection, schedule: Q04DX004 (ip), vehicle: Klucel (hydroxypropylcellulose) (HPC)
[4] = dose: 400.0 mg/kg/injection, schedule: Q04DX004 (ip), vehicle: Klucel (hydroxypropylcellulose) (HPC)
[5] = dose: 37.5 mg/kg/injection, schedule: Q04DX004 (ip), vehicle: saline with Tween-80
[6] = dose: 75.0 mg/kg/injection, schedule: Q04DX004 (ip), vehicle: saline with Tween-80
[7] = dose: 150.0 mg/kg/injection, schedule: Q04DX004 (ip), vehicle: saline with Tween-80
[8] = dose: 4.0 mg/kg/injection, schedule: Q04DX004 (ip), vehicle: saline with Tween-80
[9] = dose: 8.0 mg/kg/injection, schedule: Q04DX004 (ip), vehicle: saline with Tween-80
[10] = dose: 16.0 mg/kg/injection, schedule: Q04DX004 (ip), vehicle: saline with Tween-80
[11] = dose: 32.0 mg/kg/injection, schedule: Q04DX004 (ip), vehicle: saline with Tween-80
[12] = dose: 64.0 mg/kg/injection, schedule: Q04DX004 (ip), vehicle: saline with Tween-80

CCOC1NC(=O)Oc2ccccc21 (stereo not drawn)
T/C [1]: 107 % of control
T/C [2]: 100 % of control
T/C [3]: 99 % of control
T/C [4]: 121 % of control

CCOC(=O)N(C)N=NC
T/C (dose: 1.3 mg/kg/injection, schedule: Q04DX004 (ip), vehicle: saline): 110 % of control
T/C (dose: 2.16 mg/kg/injection, schedule: Q04DX004 (ip), vehicle: saline): 119 % of control
T/C (dose: 3.6 mg/kg/injection, schedule: Q04DX004 (ip), vehicle: saline): 122 % of control
T/C (dose: 10.0 mg/kg/injection, schedule: Q04DX004 (ip), vehicle: saline): 155 % of control
T/C (dose: 30.0 mg/kg/injection, schedule: Q04DX004 (ip), vehicle: saline): 158 % of control
T/C (dose: 60.0 mg/kg/injection, schedule: Q04DX004 (ip), vehicle: saline): 168 % of control

COc1c(C=O)c2c(c(OC)c1OC)-c1ccc(OC)c(=O)cc1[C@@H](NC(C)=O)CC2
T/C (dose: 3.75 mg/kg/injection, schedule: Q04DX004 (ip), vehicle: Klucel (hydroxypropylcellulose) (HPC)): 118 % of control
T/C (dose: 7.5 mg/kg/injection, schedule: Q04DX004 (ip), vehicle: Klucel (hydroxypropylcellulose) (HPC)): 118 % of control

Cc1cc(C)cc(N(C2=NCCS2)C2=NCCS2)c1
T/C [1]: 100 % of control
T/C [2]: 96 % of control
T/C [3]: 92 % of control
T/C [4]: 99 % of control

O=C([O][Bi]([c]1ccccc1)[c]1ccccc1)c1ccccc1
T/C (dose: 6.25 mg/kg/injection, schedule: Q04DX004 (ip), vehicle: Klucel (hydroxypropylcellulose) (HPC)): 96 % of control
T/C (dose: 12.5 mg/kg/injection, schedule: Q04DX004 (ip), vehicle: Klucel (hydroxypropylcellulose) (HPC)): 111 % of control
T/C (dose: 25.0 mg/kg/injection, schedule: Q04DX004 (ip), vehicle: Klucel (hydroxypropylcellulose) (HPC)): 101 % of control
T/C [1]: 95 % of control
T/C [2]: 91 % of control

COC(=O)c1ccc(N=NN(C)COC(C)=O)cc1
T/C (dose: 30.0 mg/kg/injection, schedule: Q04DX004 (ip), vehicle: Klucel (hydroxypropylcellulose) (HPC)): 123 % of control
T/C (dose: 60.0 mg/kg/injection, schedule: Q04DX004 (ip), vehicle: Klucel (hydroxypropylcellulose) (HPC)): 123 % of control
T/C (dose: 103.7 mg/kg/injection, schedule: Q04DX004 (ip), vehicle: Klucel (hydroxypropylcellulose) (HPC)): 175 % of control
T/C (dose: 172.8 mg/kg/injection, schedule: Q04DX004 (ip), vehicle: Klucel (hydroxypropylcellulose) (HPC)): 188 % of control
T/C (dose: 288.0 mg/kg/injection, schedule: Q04DX004 (ip), vehicle: Klucel (hydroxypropylcellulose) (HPC)): 195 % of control
T/C (dose: 480.0 mg/kg/injection, schedule: Q04DX004 (ip), vehicle: Klucel (hydroxypropylcellulose) (HPC)): 167 % of control

Clc1nc2cc3c(cc2n2cccc12)oc1ccccc13
T/C (dose: 25.0 mg/kg/injection, schedule: Q04DX004 (ip), vehicle: saline with Tween-80): 93 % of control
T/C (dose: 50.0 mg/kg/injection, schedule: Q04DX004 (ip), vehicle: saline with Tween-80): 95 % of control
T/C (dose: 100.0 mg/kg/injection, schedule: Q04DX004 (ip), vehicle: saline with Tween-80): 94 % of control
T/C (dose: 200.0 mg/kg/injection, schedule: Q04DX004 (ip), vehicle: saline with Tween-80): 86 % of control
T/C (dose: 400.0 mg/kg/injection, schedule: Q04DX004 (ip), vehicle: saline with Tween-80): 86 % of control

O=C1C(=O)N(c2cccc(Cl)c2)C(=O)N1Cc1ccccc1
T/C (dose: 43.75 mg/kg/injection, schedule: Q04DX004 (ip), vehicle: Klucel (hydroxypropylcellulose) (HPC)): 102 % of control
T/C (dose: 87.5 mg/kg/injection, schedule: Q04DX004 (ip), vehicle: Klucel (hydroxypropylcellulose) (HPC)): 97 % of control
T/C (dose: 175.0 mg/kg/injection, schedule: Q04DX004 (ip), vehicle: Klucel (hydroxypropylcellulose) (HPC)): 92 % of control
T/C (dose: 350.0 mg/kg/injection, schedule: Q04DX004 (ip), vehicle: Klucel (hydroxypropylcellulose) (HPC)): 94 % of control
T/C (dose: 700.0 mg/kg/injection, schedule: Q04DX004 (ip), vehicle: Klucel (hydroxypropylcellulose) (HPC)): 88 % of control

CCC/C=C/C=C/C(=O)OC1/C(=C/C(=O)OC)CC2CC(C(C)O)OC(=O)CC(O)CC3CC(OC(C)=O)C(C)(C)C(O)(CC4C/C(=C/C(=O)OC)CC(/C=C/C(C)(C)C1(O)O2)O4)O3 (stereo not drawn)
T/C (dose: 10.0 micrograms/kg/injection, schedule: Q01DX009 (ip), vehicle: saline): 102 % of control
T/C (dose: 20.0 micrograms/kg/injection, schedule: Q01DX009 (ip), vehicle: saline): 104 % of control
T/C (dose: 40.0 micrograms/kg/injection, schedule: Q01DX009 (ip), vehicle: saline): 107 % of control
T/C (dose: 80.0 micrograms/kg/injection, schedule: Q01DX009 (ip), vehicle: saline): 109 % of control

CN1c2ccccc2C(=O)N2C(=O)CCC21C (stereo not drawn)
T/C (dose: 18.75 mg/kg/injection, schedule: Q04DX004 (ip), vehicle: saline with Tween-80): 100 % of control
T/C [5]: 100 % of control
T/C [6]: 102 % of control
T/C [7]: 101 % of control

Cc1ccc(-c2c([N+](=O)[O-])c3ccccn3c2[N+](=O)[O-])cc1
T/C [6]: 97 % of control
T/C [7]: 87 % of control
T/C (dose: 300.0 mg/kg/injection, schedule: Q04DX004 (ip), vehicle: saline with Tween-80): 87 % of control
T/C (dose: 600.0 mg/kg/injection, schedule: Q04DX004 (ip), vehicle: saline with Tween-80): 101 % of control

CC1=C(C(N)=O)C(c2ccccc2)NC(=S)N1 (stereo not drawn)
T/C [1]: 107 % of control
T/C [2]: 99 % of control
T/C [3]: 104 % of control

O=NNc1cnccn1
T/C (dose: 6.25 mg/kg/injection, schedule: Q04DX004 (ip), vehicle: water): 107 % of control
T/C (dose: 12.5 mg/kg/injection, schedule: Q04DX004 (ip), vehicle: water): 118 % of control and 123 % of control
T/C (dose: 50.0 mg/kg/injection, schedule: Q04DX004 (ip), vehicle: water): 150 % of control and 155 % of control
T/C (dose: 100.0 mg/kg/injection, schedule: Q04DX004 (ip), vehicle: water): 196 % of control

COC(C(=O)C(O)C(C)O)C1CC2C=C3C=C(OC4CC(OC5CC(O)C(OC)C(C)O5)C(OC(C)=O)C(C)O4)C(C)C(=O)C3=C(O)C2=C(O)C1OC1CC(OC2CC(OC3CC(C)(O)C(O)C(C)O3)C(O)C(C)O2)C(O)C(C)O1 (stereo not drawn)
T/C (dose: 1.0 mg/kg/injection, schedule: Q04DX004 (ip), vehicle: saline with Tween-80): 104 % of control
T/C (dose: 2.0 mg/kg/injection, schedule: Q04DX004 (ip), vehicle: saline with Tween-80): 112 % of control
T/C [8]: 107 % of control and 112 % of control
T/C [9]: 104 % of control and 108 % of control
T/C [10]: 107 % of control and 111 % of control
T/C [11]: 117 % of control
T/C [12]: 115 % of control

Cc1ccc(Nc2nnc(CSc3ccc(Cl)cc3)s2)c(S(=O)(=O)O)c1
T/C [5]: 99 % of control
T/C [6]: 87 % of control
T/C [7]: 91 % of control

O=C(O)c1cccc2c1ccc1ccccc12
T/C [8]: 109 % of control
T/C [9]: 102 % of control
T/C (dose: 8.0 mg/kg/injection, schedule: Q04DX005 (ip), vehicle: saline): 98 % of control
T/C [10]: 107 % of control
T/C (dose: 16.0 mg/kg/injection, schedule: Q04DX005 (ip), vehicle: saline): 93 % of control
T/C [11]: 105 % of control
T/C (dose: 32.0 mg/kg/injection, schedule: Q04DX005 (ip), vehicle: saline): 96 % of control
T/C [12]: 103 % of control
T/C (dose: 64.0 mg/kg/injection, schedule: Q04DX005 (ip), vehicle: saline): 94 % of control
T/C (dose: 128.0 mg/kg/injection, schedule: Q04DX005 (ip), vehicle: saline): 96 % of control

CC(=O)OCc1cc(-c2nc3ccccc3[nH]c2=O)nn1-c1ccc(Cl)cc1
T/C (dose: 6.25 mg/kg/injection, schedule: Q04DX004 (ip), vehicle: distilled water + alcohol): 95 % of control
T/C (dose: 12.5 mg/kg/injection, schedule: Q04DX004 (ip), vehicle: distilled water + alcohol): 91 % of control
T/C (dose: 25.0 mg/kg/injection, schedule: Q04DX004 (ip), vehicle: distilled water + alcohol): 88 % of control and 91 % of control
T/C (dose: 200.0 mg/kg/injection, schedule: Q04DX004 (ip), vehicle: distilled water + alcohol): 97 % of control

O=C1C[C@@H](c2ccccc2)NCCCCN(O)CCCN1
T/C (dose: 25.0 mg/kg/injection, schedule: Q04DX004 (ip), vehicle: saline): 102 % of control
T/C (dose: 50.0 mg/kg/injection, schedule: Q04DX004 (ip), vehicle: saline): 102 % of control
T/C (dose: 100.0 mg/kg/injection, schedule: Q04DX004 (ip), vehicle: saline): 102 % of control

From PubChem BioAssay AID292 (DTP/NCI, 2004)
